Read-outs that look alike come from different tables or passages of the source.
Legend:
Assay in all cases: MIC, serial dilutions in Müller-Hinton broth
Assay type in all cases: cell-based
[1] = tested on: S. marcescens
Procedure: (§1) A comparative assessment of the spectrum of antibacterial action was carried out on archival and clinical strains of gram-positive and gram-negative microorganisms in accordance with the [Opredeleniye chuvstvitel'nosti mikroorganizmov k antibakterial'nym preparatam (Metodicheskiye ukazaniya MUK 4.2.1890-04). Utverzhdeny i vvedeny v deystviye Glavnym gosudarstvennym sanitarnym vrachom Rossiyskoy Federatsii G. G. Onishchenko 04.03.2004 g. Determination of the sensitivity of microorganisms to antibacterial drugs (Guidelines MUK 4.2.1890-04). Approved and put into effect by the Chief State Sanitary Doctor of the Russian Federation G. G. Onishchenko on 4 Mar. 2004].
(§2) The value of the minimum inhibitory concentration (MIC) was determined by the method of serial dilutions on Müller-Hinton broth using 96-well sterile plates. Two-fold dilutions of the test substances in a nutrient medium were prepared. The final concentrations were 1-128 ug/ml. The growth of cultures was assessed visually, comparing the growth of microorganisms in the presence of test compounds with the growth of culture without them. […] The first lowest concentration of the studied substance (from a series of consecutive dilutions), where bacterial growth is not visually determined, is considered to be the minimum inhibitory concentration (MIC). MIC was determined by the method of serial dilutions in broth with increment=2, so the differences of neighboring dilutions are not considered to be significant. In each experience there is a positive (broth with growing culture) and a negative (broth without growing culture) control.
(§3) To determine the MIC, 10 μl of culture medium was taken from those wells in which growth was not observed, and inoculation was performed on a dense Müller-Hinton broth. For the preparation of the inoculum, a pure, daily culture of gram-positive and gram-negative microorganisms grown on a dense nutrient medium was used. Nutrient medium is Müller-Hinton broth, which was prepared from dry media (Müller-Hinton broth, Acumedia, Baltimore), cultivation was carried out on agarized Müller-Hinton broth, including an additional 2% agar. The media were autoclaved at 121° C. for 15 minutes. In a sterile isotonic solution of sodium chloride, a suspension of microorganisms was prepared, adjusting the inoculum density to 0.5 according to the McFarland standard (1.5·10^8 CFU/ml). Then, the resulting inoculum was diluted to a concentration of 10^7 CFU/ml with Müller-Hinton broth. The inoculum was used within 15 minutes after preparation; the purity of the bacterial strains was monitored before each experiment.
(§4) 100 μl of Müller-Hinton broth was added to the wells of each plate; The tested substance was introduced into the first well at a concentration of 128 μg/ml in a volume of 100 μl and its concentration was adjusted to 0.5 μg/ml by consecutive two-fold dilution. Then, the prepared inoculum (100 μI) was added to each well, thereby diluting twice the concentration of the studied compounds. […] In addition, the purity of nutrient media and solvents was monitored. The plates were incubated in a thermostat at 37° C. for 24 hours. The growth of cultures was assessed visually, comparing the growth of microorganisms in the presence of test compounds with the growth of culture without them.
(§5) For the MIC was taken the minimum concentration of the studied compounds, providing complete suppression of the visible growth of the studied strains of microorganisms. The maximum value obtained in three independent experiments was taken as the MIC of the compound.

[2] = tested on: S. aureus 1167 MRSA
Procedure: as §1, §2, §3, §4, §5

[3] = tested on: S. epidermidis 15990
Procedure: as §1, §2, §3, §4, §5

[4] = tested on: Serratia spp. 15
Procedure: as §1, §2, §3, §4, §5

[5] = tested on: Ps. aeruginosa 1913 PR
Procedure: as §1, §2, §3, §4, §5

[6] = tested on: S. intermedius 1061 MRSI
Procedure: as §1, §2, §3, §4, §5

[7] = tested on: E. faecium 25
Procedure: as §1, §2, §3, §4, §5

[8] = tested on: E. faecium 24
Procedure: as §1, §2, §3, §4, §5

[9] = tested on: E. coli CDCF-50
Procedure: as §1, §2, §3, §4, §5

[10] = tested on: E. faecium 4402
Procedure: as §1, §2, §3, §4, §5

[11] = tested on: Kl. pneumoniae 1781
Procedure: as §1, §2, §3, §4, §5

[12] = tested on: E. faecium 31
Procedure: as §1, §2, §3, §4, §5

[13] = tested on: E. faecium 4403
Procedure: as §1, §2, §3, §4, §5

[14] = tested on: S. aureus 1168 MRSA
Procedure: as §1, §2, §3, §4, §5

[15] = tested on: S. aureus 2020 MRSA
Procedure: as §1, §2, §3, §4, §5

[16] = tested on: S. aureus 1053 MRSA
Procedure: as §1, §2, §3, §4, §5

[17] = tested on: E. faecium 3028
Procedure: as §1, §2, §3, §4, §5

[18] = tested on: Pseudomonas spp.6; details: inoculum 10^7 CFU/ml
Procedure: as §1, §2, §3, §4, §5

[19] = tested on: Moraxella sp. 713
Procedure: as §1, §2, §3, §4, §5

[20] = tested on: S. aureus 1065 MRSA
Procedure: as §1, §2, §3, §4, §5

[21] = tested on: Kl. pneumoniae
Procedure: as §1, §2, §3, §4, §5

[22] = tested on: Kl. pneumoniae 1766
Procedure: as §1, §2, §3, §4, §5

## alkyldimethyl(phenylmethyl) ammonium chloride [Benzalconium chloride]
[1]; S. marcescens, inoculum 10^7 CFU/ml
  MIC: 2 µg/mL
[2]; S. aureus 1167 MRSA, inoculum 10^7 CFU/ml
  MIC: 2 µg/mL
[3]; S. epidermidis 15990, inoculum 10^7 CFU/ml
  MIC: 1 µg/mL
[4]; Serratia spp. 15, inoculum 10^7 CFU/ml
  MIC: 2 µg/mL
[5]; Ps. aeruginosa 1913 PR, inoculum 10^7 CFU/ml
  MIC: >64 µg/mL
[6]; S. intermedius 1061 MRSI, inoculum 10^7 CFU/ml
  MIC: 4 µg/mL
[7]; E. faecium 25, inoculum 10^7 CFU/ml
  MIC: <0.5 µg/mL
[8]; E. faecium 24, inoculum 10^7 CFU/ml
  MIC: <0.5 µg/mL
[9]; E. coli CDCF-50, inoculum 10^7 CFU/ml
  MIC: 4 µg/mL
[10]; E. faecium 4402, inoculum 10^7 CFU/ml
  MIC: 1 µg/mL
[11]; Kl. pneumoniae 1781, inoculum 10^7 CFU/ml
  MIC: 16 µg/mL
[12]; E. faecium 31, inoculum 10^7 CFU/ml
  MIC: <0.5 µg/mL
[13]; E. faecium 4403, inoculum 10^7 CFU/ml
  MIC: 2 µg/mL
[14]; S. aureus 1168 MRSA, inoculum 10^7 CFU/ml
  MIC: 2 µg/mL
[15]; S. aureus 2020 MRSA, inoculum 10^7 CFU/ml
  MIC: 4 µg/mL
[16]; S. aureus 1053 MRSA, inoculum 10^7 CFU/ml
  MIC: 4 µg/mL
[17]; E. faecium 3028, inoculum 10^7 CFU/ml
  MIC: 4 µg/mL
[18]
  MIC: 16 µg/mL
[19]; Moraxella sp. 713, inoculum 10^7 CFU/ml
  MIC: 4 µg/mL
[20]; S. aureus 1065 MRSA, inoculum 10^7 CFU/ml
  MIC: 4 µg/mL
[21]; Kl. pneumoniae, inoculum 10^7 CFU/ml
  MIC: >64 µg/mL
[22]; Kl. pneumoniae 1766, inoculum 10^7 CFU/ml
  MIC: 16 µg/mL

## CCCCCCCCCCCC[N+](C)(C)Cc1cnc(C[N+](C)(C)CCCCCCCCCCCC)c2c1COC(CC)O2 (stereo not drawn) [Compound I, 5,8-(Bis(methylene (N, N-dimethyl-N-dodecylammonium))-2-ethyl-4H-[1,3]dioxino [4,5-c]pyridiniumdichloride]
[1]; Serratia marcescens, S. marcescens, inoculum 10^7 CFU/ml, read-out: MIC
  MIC: 4 µg/mL
[2]; Staphylococcus aureus, S. aureus 1167 MRSA, inoculum 10^7 CFU/ml, read-out: MIC
  MIC: 4 µg/mL
[3]; Staphylococcus epidermidis, S. epidermidis 15990, inoculum 10^7 CFU/ml, read-out: MIC
  MIC: 4 µg/mL
[4]; Serratia spp. 15, inoculum 10^7 CFU/ml, read-out: MIC
  MIC: 16 µg/mL
[5]; Pseudomonas aeruginosa, Ps. aeruginosa 1913 PR, inoculum 10^7 CFU/ml, read-out: MIC
  MIC: 64 µg/mL
[6]; S. intermedius 1061 MRSI, inoculum 10^7 CFU/ml, read-out: MIC
  MIC: 1 µg/mL
[7]; Enterococcus faecium, E. faecium 25, inoculum 10^7 CFU/ml, read-out: MIC
  MIC: 0.03 µg/mL
[8]; Enterococcus faecium, E. faecium 24, inoculum 10^7 CFU/ml, read-out: MIC
  MIC: 0.03 µg/mL
[9]; Escherichia coli, CDCF50, E. coli CDCF-50, inoculum 10^7 CFU/ml, read-out: MIC
  MIC: 8 µg/mL
[10]; Enterococcus faecium, E. faecium 4402, inoculum 10^7 CFU/ml, read-out: MIC
  MIC: 0.06 µg/mL
[11]; Klebsiella pneumoniae, Kl. pneumoniae 1781, inoculum 10^7 CFU/ml, read-out: MIC
  MIC: 2 µg/mL
[12]; Enterococcus faecium, E. faecium 31, inoculum 10^7 CFU/ml, read-out: MIC
  MIC: 0.03 µg/mL
[13]; Enterococcus faecium, E. faecium 4403, inoculum 10^7 CFU/ml, read-out: MIC
  MIC: 0.03 µg/mL
[14]; Staphylococcus aureus, S. aureus 1168 MRSA, inoculum 10^7 CFU/ml, read-out: MIC
  MIC: 1 µg/mL
[15]; Staphylococcus aureus, S. aureus 2020 MRSA, inoculum 10^7 CFU/ml, read-out: MIC
  MIC: 4 µg/mL
[16]; Staphylococcus aureus, S. aureus 1053 MRSA, inoculum 10^7 CFU/ml, read-out: MIC
  MIC: 2 µg/mL
[17]; Enterococcus faecium, E. faecium 3028, inoculum 10^7 CFU/ml, read-out: MIC
  MIC: 1 µg/mL
[18]; read-out: MIC
  MIC: 16 µg/mL
[19]; Moraxella sp. 713, inoculum 10^7 CFU/ml, read-out: MIC
  MIC: 8 µg/mL
[20]; Staphylococcus aureus, S. aureus 1065 MRSA, inoculum 10^7 CFU/ml, read-out: MIC
  MIC: 2 µg/mL
[21]; Klebsiella pneumoniae, Kl. pneumoniae, inoculum 10^7 CFU/ml, read-out: MIC
  MIC: 2 µg/mL
[22]; Klebsiella pneumoniae, Kl. pneumoniae 1766, inoculum 10^7 CFU/ml, read-out: MIC
  MIC: 16 µg/mL

## CCCCCCCCCCCCCC(=O)NCCC[N+](C)(C)Cc1ccccc1.O.[Cl-] [Miramistin, benzyldimethyl [3-(myristoylamino)propyl]-ammonium chloride monohydrate]
[1]; Serratia marcescens
  MIC: 32 µg/mL
[2]; Staphylococcus aureus, MRSA
  MIC: 4 µg/mL
[3]; Staphylococcus epidermidis, 15990
  MIC: 8 µg/mL
[4]; Serratia, SPP.15
  MIC: > 64 µg/mL
[5]; Pseudomonas aeruginosa, 1913PR
  MIC: > 64 µg/mL
[6]
  MIC: 8 µg/mL
[7]; Enterococcus faecium, 25
  MIC: < 0.5 µg/mL
[8]; Enterococcus faecium, 24
  MIC: 16 µg/mL
[9]; Escherichia coli, CDCF50
  MIC: 64 µg/mL
[10]; Enterococcus faecium, 4402
  MIC: 4 µg/mL
[11]; Klebsiella pneumoniae, 1781
  MIC: 64 µg/mL
[12]; Enterococcus faecium, 31
  MIC: 4 µg/mL
[13]; Enterococcus faecium, 4403
  MIC: 64 µg/mL
[14]; Staphylococcus aureus, MRSA
  MIC: 8 µg/mL
[15]; Staphylococcus aureus, MRSA
  MIC: 8 µg/mL
[16]; Staphylococcus aureus, MRSA
  MIC: 4 µg/mL
[17]; Enterococcus faecium, 3028
  MIC: 16 µg/mL
[18]; read-out: MIC
  MIC: > 64 µg/mL
[19]; Moraxella, SP.713
  MIC: 32 µg/mL
[20]; Staphylococcus aureus, MRSA
  MIC: 8 µg/mL
[21]; Klebsiella pneumoniae
  MIC: > 64 µg/mL
[22]; Klebsiella pneumoniae, 1766
  MIC: 64 µg/mL

Source: patent publication US11014934B2, “Antiseptic drug” (AO “TATKHIMFARMPREPARATY”, priority 2017, dated 2021)
